Counter-ions that a name gives are not always drawn.
Tests used:
[1] = In vitro flux of pergolide through human cadaver epidermis in diffusion cells at 35° C.; type: in vitro ADME; settings: 2% by weight in water donor, no permeation enhancer, over a period of 50 hours
Protocol: Several test samples were made to measure the flux of pergolide base and mesylate through human cadaver epidermis from donor vehicles containing the pergolide base or mesylate mixed with water alone, water and ethanol, or mineral oil alone as shown in Table 1. Transdermal fluxes were obtained using human epidermis at 35° C. in standard diffusion cells. FIGS. 5 and 6 graphically depict the results.
Circular pieces of human epidermis were placed with stratum corneum facing up. The release liner of the laminate was removed and the system was centered over the stratum corneum side of the epidermis. The edges of epidermis were then folded around the system. This assembly was then mounted on a Teflon rod. A known volume of receptor solution was then placed in a test tube and was equilibrated at 35° C. The Teflon rod with system and epidermis attached was then placed in a water bath at 35° C. Mixing was accomplished by attachment to a motor which caused constant vertical mixing.
At given time intervals, the entire receptor solution was removed from the test tubes and replaced with an equal volume of fresh receptor solutions previously equilibrated at 35° C. The receptor solutions are stored in capped vials at room temperature until assayed for pergolide content by HPLC. From the drug concentration and the volume of the receptor solutions, the area of permeation and the time interval, the flux of the drug through the epidermis was calculated as follows: (drug concentration X volume of receptor)/(area x time)=flux (μg/cm^2·hr).

[2] = Plasma terminal half-life of pergolide administered transdermally; type: in vivo; settings: human, topical or ocular

Row | average baseline skin flux [1] | average baseline skin flux ([1]; listed as pergolide. base) | average baseline skin flux ([1]; listed as pergolide6mesylate) | half-life [2] [h] | Compound
1 | approximately 0.3 μg/cm^2·hr | about 0.3 μg/cm^2·hr | – | – | CCCN1CC(CSC)C[C@@H]2c3cccc4[nH]cc(c34)C[C@H]21 (some centres unmarked) [pergolide base, 8-[(methylthio)methyl]-6-propylergoline]
2 | approximately 1.1 μg/cm^2·hr | – | about 1.1 μg/cm^2·hr | – | CCCN1C[C@H](CSC)C[C@@H]2c3cccc4[nH]cc(c34)C[C@H]21 [pergolide mesylate, 8-[(methylthiolmethyl]6-propylergoline monomethanesulfonate)]
3 | – | – | – | 5 to 10 | CCCN1CC(CSC)C[C@@H]2c3cccc4[nH]cc(c34)C[C@H]21 (some centres unmarked) [pergolide, 8-[(methylthio)methyl]-6-propylergoline]

Reference: patent US6572879B1, “Formulations for transdermal delivery of pergolide” (Alza Corporation, priority 1995, dated 2003)
